From patent publication US20250177566A1, “USE OF CHEMICAL EPIGENETIC MODIFIERS TO MODULATE GENE EXPRESSION” (The University of North Carolina at Chapel Hill, priority 2022, published 2025)
Like-named read-outs stand apart in the source and are kept apart here.

Key:
[1] = test system: TRE3G-GFP reporter gene; conditions: WT FKBP (MS2-FKBPx2), 48 hrs
Experimental: HCT116 cells were transfected with TRE3G-GFP, dCas9, MS2-FKPB*x2, and TRE3G gRNA or NT gRNA. After 48 hrs of 10 nM SLF*-CEMa treatment, flow cytometry was performed and mean fluorescent value was collected. […] TRE3G-GFP, dCas9, MS2-FKBP*2, TRE3G gRNA or NT gRNA were transfected into HCT116 cells. The media was changed to media with 5 nM CEM207 together with 0 nM, 50 nM, 500 nM or 5000 nM of AP1867, respectively. After 48 hrs chemical exposure, flow cytometry was performed and the mean fluorescent value was measured in each group of cells. […] FIGS. 5D and 5E are dose curves of CEMa molecules activating the GFP reporter gene in HCT116 cells using WT FKBP and dCas9 as DNA binding module. HCT116 cells were transfected with dCas9, MS2-FKBPx2, TRE3G-GFP constructs, along with TRE3G gRNA or NT gRNA. Cells were treated with different concentrations of CEMa molecules for 48 hrs before flow cytometry was conducted. […] Error bars represent the standard deviation.
To better understand the activity of SLF*-CEMa in the WT FKBP-based GFP reporter assay, a similar dose-response assay was conducted in HCT116 cells transfected with dCas9 and MS2-FKBPx2 (FIGS. 1D and 1E).
Flow cytometry. All flow cytometry experiments were performed with Attune Nxt as previously described. […] Significance was determined by Student's t-test.

[2] = test system: CXCR4; assay: CXCR4 mRNA activation in HCT116 stably expressing dCas9 and MS2-FKBP*x2, qRT-PCR; format: cell-based, human; conditions: for fold change, CXCR4 mRNA (CEM Treated vs Non-Treated): 48 hrs; for fold change, CXCR4 mRNA (CXCR4 gRNA vs NT gRNA): FIG. 3B; for fold change, CXCR4 mRNA (CXCR4 gRNA vs NT gRNA) / fold change, CXCR4 mRNA (washout vs AP1867 competition) / fold change, CXCR4 mRNA (Compare to 0 h): CEM207 25 nM; for fold change, CXCR4 mRNA (washout vs AP1867 competition): FIG. 3D; for fold change, CXCR4 mRNA (Compare to 0 h): FIG. 7A
Outline: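 HCT116 cells stably expressing dCas9 and MS2-FKBP*x2 with CXCR4 gRNA were treated with CEMs (screen at 5 nM; 1–50 nM range). CXCR4 mRNA measured by one-step qRT-PCR after 48 h, or at 12–96 h in time course. Reversibility tested by washout after 24 h, optionally with 20 μM AP1867.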

[3] = test system: CXCR4; assay: CXCR4 mRNA activation in HCT116 stably expressing dCas9 and MS2-FKBPx2 (WT-FKBP), qRT-PCR; format: cell-based, human; conditions: FIG. 6, WT FKBP system, 48 hrs
[4] = test system: TRE3G-GFP reporter gene; assay: TRE3G-GFP reporter gene activation in HCT116, dCas9 + MS2-FKBP*x2 (F36V) system, flow cytometry; format: cell-based, human; design: fold change, GFP: reference not given here; conditions: for fold change, GFP (Treated vs Non-Treated): FIG. 1E, 48 hours; for fold change, GFP: 48 hrs

SMILES: CC[C@H](C(=O)N1CCCC[C@H]1C(=O)O[C@H](CCc1ccc(OC)c(OC)c1)c1cccc(OCC(=O)NCCOCCOCCNC(=O)C[C@@H]2N=C(c3ccc(Cl)cc3)c3c(sc(C)c3C)-n3c(C)nnc32)c1)c1cc(OC)c(OC)c(OC)c1 [CEM207, (R)-1-(3-((14-((S)-4-(4-Chlorophenyl)-2,3,9-trimethyl-6H-thieno[3,2-f][1,2,4]triazolo[4,3-a][1,4]diazepin-6-yl)-2,13-dioxo-6,9-dioxa-3,12-diazatetradecyl)oxy)phenyl)-3-(3,4-dimethoxyphenyl) propyl(S)-1-((S)-2-(3,4,5-trimethoxyphenyl)butanoyl) piperidine-2-carboxylate]
- fold change, GFP (Treated vs Non-Treated) ([1]; FIG. 5D, 10 nM): 1.9 fold
- fold change, GFP (Treated vs Non-Treated) ([1]; FIG. 5D, 25 nM): 6.5 fold
- fold change, GFP (Treated vs Non-Treated) ([1]; FIG. 5D, 50 nM): 17.4 fold
- fold change, GFP (Treated vs Non-Treated) ([1]; FIG. 5D, 100 nM): 20.8 fold
- fold change, GFP (Treated vs Non-Treated) ([1]; FIG. 5D, 200 nM): 24.0 fold
- fold change, GFP (Treated vs Non-Treated) ([1]; FIG. 5D, 400 nM): 27.2 fold
- fold change, GFP (Treated vs Non-Treated) ([1]; FIG. 5E, 10 nM): 1.1 fold
- fold change, GFP (Treated vs Non-Treated) ([1]; FIG. 5E, 25 nM): 1.1 fold
- fold change, GFP (Treated vs Non-Treated) ([1]; FIG. 5E, 50 nM): 1.0 fold
- fold change, GFP (Treated vs Non-Treated) ([1]; FIG. 5E, 100 nM): 1.1 fold
- fold change, GFP (Treated vs Non-Treated) ([1]; FIG. 5E, 200 nM): 1.2 fold
- fold change, GFP (Treated vs Non-Treated) ([1]; FIG. 5E, 400 nM): 1.3 fold
- fold change, CXCR4 mRNA (CEM Treated vs Non-Treated) ([2]; FIG. 2D, CXCR4 gRNA, 0.5 nM): 2.5 fold
- fold change, CXCR4 mRNA (CEM Treated vs Non-Treated) ([2]; FIG. 2D, CXCR4 gRNA, 1 nM): 7.4 fold
- fold change, CXCR4 mRNA (CEM Treated vs Non-Treated) ([2]; FIG. 2D, CXCR4 gRNA, 5 nM): 28.2 fold
- fold change, CXCR4 mRNA (CEM Treated vs Non-Treated) ([2]; FIG. 2D, CXCR4 gRNA, 25 nM): 48.2 fold
- fold change, CXCR4 mRNA (CEM Treated vs Non-Treated) ([2]; FIG. 2D, CXCR4 gRNA, 50 nM): 34.6 fold
- fold change, CXCR4 mRNA (CEM Treated vs Non-Treated) ([2]; FIG. 2D, NT gRNA, 0.5 nM): 1.17 fold
- fold change, CXCR4 mRNA (CEM Treated vs Non-Treated) ([2]; FIG. 2D, NT gRNA, 1 nM): 0.77 fold
- fold change, CXCR4 mRNA (CEM Treated vs Non-Treated) ([2]; FIG. 2D, NT gRNA, 5 nM): 1.47 fold
- fold change, CXCR4 mRNA (CEM Treated vs Non-Treated) ([2]; FIG. 2D, NT gRNA, 25 nM): 2.21 fold
- fold change, CXCR4 mRNA (CEM Treated vs Non-Treated) ([2]; FIG. 2D, NT gRNA, 50 nM): 1.88 fold
- CXCR4 activation compared to dCas9-p300 ([2]; FIG. 2D, concentrations above 5 nM): higher CXCR4 activation
- fold change, CXCR4 mRNA (CXCR4 gRNA vs NT gRNA) ([2]; 24 h): 18.6 fold
- fold change, CXCR4 mRNA (CXCR4 gRNA vs NT gRNA) ([2]; 48 h): 13.1 fold
- fold change, CXCR4 mRNA (CXCR4 gRNA vs NT gRNA) ([2]; 48 h AP1867 (washout with 20 μM AP1867 after 24 hrs)): 8.3 fold
- fold change, CXCR4 mRNA (CXCR4 gRNA vs NT gRNA) ([2]; 48 h wash (media washout after 24 hrs)): 10.5 fold
- fold change, CXCR4 mRNA (CXCR4 gRNA vs NT gRNA) ([2]; 72 h): 6.8 fold
- fold change, CXCR4 mRNA (CXCR4 gRNA vs NT gRNA) ([2]; 72 h AP1867 (washout with 20 μM AP1867 after 24 hrs)): 4.2 fold
- fold change, CXCR4 mRNA (CXCR4 gRNA vs NT gRNA) ([2]; 72 h wash (media washout after 24 hrs)): 5.4 fold
- fold change, CXCR4 mRNA (CXCR4 gRNA vs NT gRNA) ([2]; 96 h AP1867 (washout with 20 μM AP1867 after 24 hrs)): 2.1 fold
- fold change, CXCR4 mRNA (CXCR4 gRNA vs NT gRNA) ([2]; 96 h wash (media washout after 24 hrs)): 4.3 fold
- fold change, CXCR4 mRNA (washout vs AP1867 competition) ([2]; 48 h): 1.2 fold
- fold change, CXCR4 mRNA (washout vs AP1867 competition) ([2]; 72 h): 2.4 fold
- fold change, CXCR4 mRNA (washout vs AP1867 competition) ([2]; 96 h): 0.57 fold
- fold change, CXCR4 mRNA (Compare to 0 h) ([2]; NT gRNA, 12 h): 0.1 fold
- fold change, CXCR4 mRNA (Compare to 0 h) ([2]; NT gRNA, 24 h): 0.6 fold
- fold change, CXCR4 mRNA (Compare to 0 h) ([2]; NT gRNA, 48 h): 0.7 fold
- fold change, CXCR4 mRNA (Compare to 0 h) ([2]; NT gRNA, 48 h AP1867 (washout with 20 μM AP1867 after 24 hrs)): 0.7 fold
- fold change, CXCR4 mRNA (Compare to 0 h) ([2]; NT gRNA, 48 h wash (media washout after 24 hrs)): 0.8 fold
- fold change, CXCR4 mRNA (Compare to 0 h) ([2]; NT gRNA, 72 h): 0.6 fold
- fold change, CXCR4 mRNA (Compare to 0 h) ([2]; NT gRNA, 72 h AP1867 (washout with 20 μM AP1867 after 24 hrs)): 0.3 fold
- fold change, CXCR4 mRNA (Compare to 0 h) ([2]; NT gRNA, 72 h wash (media washout after 24 hrs)): 0.4 fold
- fold change, CXCR4 mRNA (Compare to 0 h) ([2]; NT gRNA, 96 h): 0.5 fold
- fold change, CXCR4 mRNA (Compare to 0 h) ([2]; NT gRNA, 96 h AP1867 (washout with 20 μM AP1867 after 24 hrs)): 0.6 fold
- fold change, CXCR4 mRNA (Compare to 0 h) ([2]; NT gRNA, 96 h wash (media washout after 24 hrs)): 0.6 fold
- CXCR4 mRNA expression after CEM washout in comparison to cells continuously treated ([2]; FIGS. 3C and 3D, CEM203 50 nM or CEM207 25 nM for 24 hours, then media exchange, all time points): significantly lowered CXCR4 mRNA expression
- time point of highest (peak) CXCR4 mRNA activation ([2]; time course 12, 24, 48, 72, 96 hrs, CXCR4 gRNA): 24 h
- fold change, CXCR4 mRNA (CXCR4 gRNA vs NT gRNA) ([3]; 50 nM): 4.2 fold
- fold change, CXCR4 mRNA (CXCR4 gRNA vs NT gRNA) ([3]; 200 nM): 9.1 fold
- fold change, GFP (Treated vs Non-Treated) ([4]; TRE3G gRNA, 0.25 nM): 2.0 fold
- fold change, GFP (Treated vs Non-Treated) ([4]; TRE3G gRNA, 0.5 nM): 9.1 fold
- fold change, GFP (Treated vs Non-Treated) ([4]; TRE3G gRNA, 0.75 nM): 11.5 fold
- fold change, GFP (Treated vs Non-Treated) ([4]; TRE3G gRNA, 1 nM): 12.8 fold
- fold change, GFP (Treated vs Non-Treated) ([4]; TRE3G gRNA, 2.5 nM): 20.6 fold
- fold change, GFP (Treated vs Non-Treated) ([4]; TRE3G gRNA, 5 nM): 24.0 fold
- fold change, GFP (Treated vs Non-Treated) ([4]; TRE3G gRNA, 7.5 nM): 22.5 fold
- fold change, GFP (Treated vs Non-Treated) ([4]; TRE3G gRNA, 10 nM): 21.4 fold
- fold change, GFP (Treated vs Non-Treated) ([4]; TRE3G gRNA, 25 nM): 21.5 fold
- fold change, GFP (Treated vs Non-Treated) ([4]; TRE3G gRNA, 50 nM): 22.3 fold
- fold change, GFP (Treated vs Non-Treated) ([4]; TRE3G gRNA, 75 nM): 22.5 fold
- fold change, GFP (Treated vs Non-Treated) ([4]; TRE3G gRNA, 100 nM): 21.9 fold
- fold change, GFP ([4]; FIG. 5A, NT gRNA, 10 nM): 0.3 fold
- fold change, GFP ([4]; FIG. 5A, TRE3G gRNA, 10 nM): 12.0 fold
- fold change, GFP ([4]; FIG. 5C, NT gRNA, 0.25 nM): 1.1 fold
- fold change, GFP ([4]; FIG. 5C, NT gRNA, 0.5 nM): 1.1 fold
- fold change, GFP ([4]; FIG. 5C, NT gRNA, 0.75 nM): 1.1 fold
- fold change, GFP ([4]; FIG. 5C, NT gRNA, 1 nM): 1.1 fold
- fold change, GFP ([4]; FIG. 5C, NT gRNA, 2.5 nM): 1.2 fold
- fold change, GFP ([4]; FIG. 5C, NT gRNA, 5 nM): 1.5 fold
- fold change, GFP ([4]; FIG. 5C, NT gRNA, 7.5 nM): 1.5 fold
- fold change, GFP ([4]; FIG. 5C, NT gRNA, 10 nM): 1.4 fold
- fold change, GFP ([4]; FIG. 5C, NT gRNA, 25 nM): 1.6 fold
- fold change, GFP ([4]; FIG. 5C, NT gRNA, 50 nM): 1.6 fold
- fold change, GFP ([4]; FIG. 5C, NT gRNA, 75 nM): 1.5 fold
- fold change, GFP ([4]; FIG. 5C, NT gRNA, 100 nM): 1.5 fold
